The first assay concerns Respiratory Syncytial Virus. The assay is described as follows: In vitro screening for activity against RSV (tetrazolium-based colorimetric assay, protection against viral cytopathology). The class given is cell-based. The following applies: Table 5a; RSV in HeLa cells, MTT, seven days after infection; pEC50 = -log of EC50 in molar units. From the text: The percent protection against cytopathology caused by viruses (antiviral activity or EC50) achieved by tested compounds and their cytotoxicity (CC50) are both calculated from dose-response curves. The selectivity of the antiviral effect is represented by the selectivity index (SI), calculated by dividing the CC50 (cytotoxic dose for 50% of the cells) by the EC50 (antiviral activity for 50% of the cells). The tables in the above experimental part list the category to which each of the prepared compounds belong: Compounds belonging to activity category “A” have a pEC50 (−log of EC50 when expressed in molar units) equal to or more than 7. Compounds belonging to activity category “B” have a pEC50 value between 6 and 7.
Automated tetrazolium-based colorimetric assays were used for determination of EC50 and CC50 of test compounds. Flat-bottom, 96-well plastic microtiter trays were filled with 180 μl of Eagle's Basal Medium, supplemented with 5% FCS (0% for FLU) and 20 mM Hepes buffer. Subsequently, stock solutions (7.8× final test concentration) of compounds were added in 45 μl volumes to a series of triplicate wells so as to allow simultaneous evaluation of their effects on virus- and mock-infected cells. Five five-fold dilutions were made directly in the microtiter trays using a robot system. Untreated virus controls, and HeLa cell controls were included in each test. Approximately 100 TCID50 of Respiratory Syncytial Virus was added to two of the three rows in a volume of 50 μl. The same volume of medium was added to the third row to measure the cytotoxicity of the compounds at the same concentrations as those used to measure the antiviral activity. After two hours of incubation, a suspension (4×10^5 cells/ml) of HeLa cells was added to all wells in a volume of 50 μl. The cultures were incubated at 37° C. in a 5% CO2 atmosphere. Seven days after infection the cytotoxicity and the antiviral activity was examined spectrophotometrically. To each well of the microtiter tray, 25 μl of a solution of MTT (3-(4,5-dimethylthiazol-2-yl)-2,5-diphenyltetrazolium bromide) was added. The trays were further incubated at 37° C. for 2 hours, after which the medium was removed from each cup. Solubilization of the formazan crystals was achieved by adding 100 μl 2-propanol. Complete dissolution of the formazan crystals were obtained after the trays have been placed on a plate shaker for 10 min. Finally, the absorbances were read in an eight-channel computer-controlled photometer (Multiskan MCC, Flow Laboratories) at two wavelengths (540 and 690 nm). The absorbance measured at 690 nm was automatically subtracted from the absorbance at 540 nm, so as to eliminate the effects of non-specific absorption.
The percent protection against cytopathology caused by viruses (antiviral activity or EC50) achieved by tested compounds and their cytotoxicity (CC50) were both calculated from dose-response curves. The selectivity of the antiviral effect is represented by the selectivity index (SI), calculated by dividing the CC50 (cytotoxic dose for 50% of the cells) by the EC50 (antiviral activity for 50% of the cells).
As to `Cc1ccc(O)c(Cn2c(N)nc3ccc(CCC#N)cc32)n1` [Compound 198], the Activity turned out to be 6.8. Same read-out and setting: next, `Cc1cc(C)c2nc(N)n(Cc3nc(C)ccc3O)c2c1` [Compound 199]: 6.8; `CNc1nc2ccc(CO)cc2n1Cc1nc(C)ccc1O` [Compound 200]: 4.9; `CNc1nc2cc(CO)ccc2n1Cc1nc(C)ccc1O` [Compound 202]: below 4.0.

The assay is the same for the next values; noted with them: Table 5b; RSV in HeLa cells, MTT, seven days after infection; pEC50 = -log of EC50 in molar units.
As to `Cc1ccc(CCCO)c(NCc2ccc3nc(N)n(Cc4cccc5cccnc45)c3c2)c1` [Compound 208], the Activity worked out at 7.9. Turning to `COc1ccc(C)nc1Cn1c(N)nc2ccc(CNc3cc(C)ccc3CCCO)cc21` [Compound 209], the Activity is 7.8.

`Cc1ccc(CCCO)c(NCc2ccc3nc(N)n(Cc4cccc(Br)n4)c3c2)c1` [Compound 212] gave an Activity of 7.5.

In turn, `Cc1ccc(CCCO)c(NCc2ccc3nc(N)n(Cc4cccc5cccnc45)c3c2)c1` [Compound 214] gave an Activity of 7.3. On to `Cc1ccc(CCCO)c(NCc2ccc3nc(N)n(Cc4nc(C)c(C)nc4C)c3c2)c1` [Compound 218], for which the Activity is 6.1. The compound `Cc1ccc(CCCO)c(NCc2ccc3nc(N)n(Cc4ccc(F)cc4)c3c2)c1` [Compound 219] registered an Activity of 5.3. `Cc1cccc(N(CCCO)Cc2ccc3nc(N)n(Cc4cccc5cccnc45)c3c2)c1` [Compound 225] registered an Activity below 4. `Cc1ccc(CCCO)c(NCc2ccc3nc(N)n(Cc4cccc(Br)n4)c3c2)c1` [Compound 228] returned an Activity below 4. As to `COc1ccc(C)nc1Cn1c(N)nc2ccc(CNc3cc(C)ccc3CCCO)cc21` [Compound 234], the Activity is on record as below 4. On to `Cc1ccc(CCCO)c(NCc2ccc3nc(N)n(Cc4cccc5c4ncn5C)c3c2)c1` [Compound 235], for which the Activity was below 4.

Staying with this assay, now noted: Table 6; numeric activity values, pEC50 (−log of EC50 in molar units).
In turn, `Cc1ccc(O)c(Cn2cnc3cc(CNCCCC4CCC(=O)N4)ccc32)n1` (stereo not shown) [Compound 241] yielded an Activity of 4.5. Regarding `Cc1cccc(C(=O)Nc2ccc3c(c2)ncn3Cc2nc(C)ccc2O)c1` [Compound 242], the Activity is recorded as 4.2.

In turn, `Cc1ccc(O)c(Cn2cnc3cc(CNCCc4cccn4C)ccc32)n1` [Compound 243] registered an Activity of 4.2. The same measure, in the same setting: next, `Cc1ccc(O)c(Cn2cnc3cc(NC(=O)Cc4ccccc4)ccc32)n1` [Compound 244]: 4.2; `Cc1ccc(O)c(Cn2cnc3cc(NC(=O)C4CCN(CCN)CC4)ccc32)n1` [Compound 245]: 4.2. Turning to `Cc1ccc(O)c(Cn2cnc3cc(CO)ccc32)n1` [Compound 246], the Activity was below 4.0. `Cc1ccc(O)c(Cn2cnc3ccc(CO)cc32)n1` [Compound 247]: the Activity is reported as below 4.0. On to `Cc1ccc(O)c(Cn2cnc3cc(C=Cc4ccccc4)ccc32)n1` [Compound 249], for which the Activity is reported as below 4.0.

Turning to `Cc1ccc(O)c(Cn2cnc3cc(CCc4ccccc4)ccc32)n1` [Compound 250], the Activity is recorded as below 4.0.

Take `Cc1ccc(O)c(Cn2cnc3cc(C=CC#N)ccc32)n1` [Compound 252]: the Activity is recorded as below 4.0.

Regarding `Cc1ccc(O)c(Cn2cnc3cc(CNCCc4ccccc4)ccc32)n1` [Compound 253], the Activity is listed as below 4.0. In turn, `Cc1ccc(O)c(Cn2cnc3cc(CNCCN(C)C)ccc32)n1` [Compound 255] had an Activity below 4.0. `Cc1ccc(O)c(Cn2cnc3cc(CNCCCN4CCOCC4)ccc32)n1.Cl` [Compound 258] returned an Activity below 4.0. In turn, `COCCCNCc1ccc2c(c1)ncn2Cc1nc(C)ccc1O` [Compound 260] displayed an Activity below 4.0. The compound `Cc1ccc(O)c(Cn2cnc3cc(CNC4CCNCC4)ccc32)n1.Cl` [Compound 262] showed an Activity below 4.0. The compound `Cc1cccc(NCc2ccc3c(c2)ncn3Cc2nc(C)ccc2O)c1` [Compound 265] displayed an Activity below 4.0.

Staying with this assay, now noted: human respiratory syncytial virus, 168 h; Table 5b; RSV in HeLa cells, MTT, seven days after infection; pEC50 = -log of EC50 in molar units; read-out: Activity (converted).
As for `Nc1nc2ccc(CO)cc2n1Cc1cccc2cccnc12` [Compound 222, (2-amino-3-quinolin-8-ylmethyl-3H-benzoimidazol-5-yl)-methanol], the EC50 is 39.8 µM.

For the origin of these results see patent US8044073B2, “Aminobenzimidazoles and benzimidazoles as inhibitors of respiratory syncytial virus replication” (Tibotec Pharmaceuticals, priority 2003, dated 2011).
